Data taken from patent US9453034B2, “C2-azaspiro iminothiazine dioxides as BACE inhibitors, compositions, and their use” (Merck Sharp & Dohme Corp., priority 2013, dated 2016).

Assays:
[1] = target: soluble human BACE1 catalytic domain (Homo sapiens (Human), UniProt P56817); assay: BACE1 HTRF FRET Assay; type: biochemical; conditions: Ki calculated from IC50 using the Cheng-Prusoff equation; QSY7-APPswe-Eu substrate, pH 5.0
Text: Reagents: Na^+-Acetate pH 5.0; 1% Brij-35; Glycerol; Dimethyl Sulfoxide (DMSO);
A homogeneous time-resolved FRET assay can be used to determine IC50 values for inhibitors of the soluble human BACE1 catalytic domain. This assay monitors the increase of 620 nm fluorescence that resulted from BACE1 cleavage of an APPswedish APP^swe mutant peptide FRET substrate (QSY7-[…]-Europium-amide). This substrate contains an N-terminal QSY7 moiety that serves as a quencher of the C-terminal Europium fluorophore (620 nm Em). […] Inhibition of BACE1 cleavage of the QSY7-APP^swe-Eu substrate by inhibitors is manifested as a suppression of 620 nm fluorescence.
Reactions are initiated by addition of 10 μl of 600 nM QSY7-APP^swe-Eu substrate (200 nM final) to give a final reaction volume of 30 μl in a 384 well Nunc HTRF plate. The reactions are incubated at 30° C. for 1.5 hours. The 620 nm fluorescence is then read on a Rubystar HTRF plate reader (BMG Labtechnologies) using a 50 millisecond delay followed by a 400 millisecond acquisition time window. Inhibitor IC50 values are derived from non-linear regression analysis of concentration response curves.

[2] = target: purified human autoBACE-2 (Homo sapiens (Human), UniProt Q9Y5Z0); assay: BACE-2 Assay (BACE-HTRF assay); type: biochemical; conditions: Ki calculated from IC50 using the Cheng-Prusoff equation; QSY7-EISEVNLDAEFC-Eu-amide substrate, pH 5.0; read-out: BACE2 Ki
Description: Inhibitor IC50s at purified human autoBACE-2 are determined in a time-resolved endpoint proteolysis assay that measures hydrolysis of the QSY7-EISEVNLDAEFC-Eu-amide FRET peptide substrate (BACE-HTRF assay). BACE-mediated hydrolysis of this peptide results in an increase in relative fluorescence (RFU) at 620 nm after excitation with 320 nm light. Inhibitor compounds, prepared at 3× the desired final concentration in 1×BACE assay buffer (20 mM sodium acetate pH 5.0, 10% glycerol, 0.1% Brij-35) supplemented with 7.5% DMSO are pre-incubated with an equal volume of autoBACE-2 enzyme diluted in 1×BACE assay buffer (final enzyme concentration 1 nM) in black 384-well NUNC plates for 30 minutes at 30° C. The assay is initiated by addition of an equal volume of the QSY7-EISEVNLDAEFC-Eu-amide substrate (200 nM final concentration, Km=8 μM […] for autoBACE-2) prepared in 1×BACE assay buffer supplemented with 7.5% DMSO and incubated for 90 minutes at 30° C. DMSO is present at 5% final concentration in the assay. Following laser excitation of sample wells at 320 nm, the fluorescence signal at 620 nm is collected for 400 ms following a 50 μs delay on a RUBYstar HTRF plate reader (BMG Labtechnologies). Raw RFU data is normalized to maximum (1.0 nM BACE/DMSO) and minimum (no enzyme/DMSO) RFU values. IC50s are determined by nonlinear regression analysis (sigmoidal dose response, variable slope) of percent inhibition data with minimum and maximum values set to 0 and 100 percent respectively. Similar IC50s are obtained when using raw RFU data. The Ki values are calculated from the IC50 using the Cheng-Prusoff equation.

purified human autoBACE-2, sequence (Q9Y5Z0 63-473): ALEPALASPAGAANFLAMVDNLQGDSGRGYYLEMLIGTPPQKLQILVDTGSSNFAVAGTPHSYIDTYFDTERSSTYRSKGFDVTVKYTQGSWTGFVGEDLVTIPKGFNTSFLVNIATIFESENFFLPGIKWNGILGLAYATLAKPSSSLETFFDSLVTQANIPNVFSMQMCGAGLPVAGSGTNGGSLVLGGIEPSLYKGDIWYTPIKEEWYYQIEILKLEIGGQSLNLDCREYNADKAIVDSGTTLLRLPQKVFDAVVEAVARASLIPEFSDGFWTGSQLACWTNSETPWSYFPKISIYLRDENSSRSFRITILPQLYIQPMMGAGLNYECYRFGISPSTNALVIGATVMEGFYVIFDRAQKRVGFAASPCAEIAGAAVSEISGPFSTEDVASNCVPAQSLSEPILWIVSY
soluble human BACE1 catalytic domain, sequence (P56817 75-416): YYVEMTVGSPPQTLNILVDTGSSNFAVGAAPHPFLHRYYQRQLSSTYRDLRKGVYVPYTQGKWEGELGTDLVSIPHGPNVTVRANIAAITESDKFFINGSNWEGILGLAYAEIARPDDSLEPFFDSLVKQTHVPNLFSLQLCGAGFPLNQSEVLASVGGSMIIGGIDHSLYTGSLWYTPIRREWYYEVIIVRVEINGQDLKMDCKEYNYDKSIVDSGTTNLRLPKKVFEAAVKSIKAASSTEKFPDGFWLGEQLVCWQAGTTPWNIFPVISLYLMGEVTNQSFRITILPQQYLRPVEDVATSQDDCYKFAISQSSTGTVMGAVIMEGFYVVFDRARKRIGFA

Ki [1] [nM]	Ki [2] [nM]	Compound
35	24	Cc1cc(C#N)cnc1C(=O)Nc1ccc(F)c([C@]2(C)CS(=O)(=O)C3(CCN(C)CC3)C(=N)N2)c1 [Example 35, 5-cyano-N-{4-fluoro-3-[(3R)-5-imino-3,9-dimethyl-1,1-dioxido-1-thia-4,9-diazaspiro[5.5]undec-3-yl]phenyl}-3-methylpyridine-2-carboxamide]
37	23	COc1cnc(C(=O)Nc2ccc(F)c([C@]3(C)CS(=O)(=O)C4(CCN(C)CC4)C(=N)N3)c2)c(C)c1 [Example 33, N-{4-fluoro-3-[(3R)-5-imino-3,9-dimethyl-1,1-dioxido-1-thia-4,9-diazaspiro[5.5]undec-3-yl]phenyl}-5-methoxy-3-methylpyridine-2-carboxamide]
10.4	4.9	COc1cnc(C(=O)Nc2ccc(F)c([C@]3(C)CS(=O)(=O)C4(CN(C)C4)C(=N)N3)c2)c(C)n1 [Example 10, N-{4-fluoro-3-[(7R)-9-imino-2,7-dimethyl-5,5-dioxido-5-thia-2,8-diazaspiro[3.5]non-7-yl]phenyl}-5-methoxy-3-methylpyrazine-2-carboxamide]
3.3	10.3	CN1CC2(C1)C(=N)N[C@](C)(c1cc(NC(=O)c3ccc(OC(F)(F)F)cn3)ccc1F)CS2(=O)=O [Example 6, N-{4-fluoro-3-[(7R)-9-imino-2,7-dimethyl-5,5-dioxido-5-thia-2,8-diazaspiro[3.5]non-7-yl]phenyl}-5-(trifluoromethoxy) pyridine-2-carboxamide]
2.3	30	CC#CCOc1ccc(C(=O)Nc2ccc(F)c([C@]3(C)CS(=O)(=O)C4(CN(C)C4)C(=N)N3)c2)nc1 [Example 12, 5-(but-2-yn-1-yloxy)-N-{4-fluoro-3-[(7R)-9-imino-2,7-dimethyl-5,5-dioxido-5-thia-2,8-diazaspiro[3.5]non-7-yl]phenyl}pyridine-2-carboxamide]
6.5	2.3	COc1ccc(C(=O)Nc2ccc(F)c([C@]3(C)CS(=O)(=O)C4(CN(S(C)(=O)=O)C4)C(=N)N3)c2)nc1 [Example 38, (R)—N-(4-fluoro-3-(9-imino-7-methyl-2-(methylsulfonyl)-5,5-dioxido-5-thia-2,8-diazaspiro[3.5]nonan-7-yl)phenyl)-5-methoxypicolinamide]
548	56	COCC(=O)Nc1ccc(F)c([C@]2(C)CS(=O)(=O)C3(CCN(C)CC3)C(=N)N2)c1 [Example 36b, N-{4-fluoro-3-[(3R)-5-imino-3,9-dimethyl-1,1-dioxido-1-thia-4,9-diazaspiro[5.5]undec-3-yl]phenyl}-2-methoxyacetamide]
37	23	COc1cnc(C(=O)Nc2ccc(F)c([C@]3(C)CS(=O)(=O)C4(CCN(C)CC4)C(=N)N3)c2)c(C)n1 [Example 34, N-{4-fluoro-3-[(3R)-5-imino-3,9-dimethyl-1,1-dioxido-1-thia-4,9-diazaspiro[5.5]undec-3-yl]phenyl}-5-methoxy-3-methylpyrazine-2-carboxamide]
37	6.4	CN1CCC2(CC1)C(=N)N[C@](C)(c1cc(NC(=O)c3ccc(F)cn3)ccc1F)CS2(=O)=O [Example 26, 5-fluoro-N-{4-fluoro-3-[(3R)-5-imino-3,9-dimethyl-1,1-dioxido-1-thia-4,9-diazaspiro[5.5]undec-3-yl]phenyl}pyridine-2-carboxamide]
22	16	COc1ccc(C(=O)Nc2ccc(F)c([C@]3(C)CS(=O)(=O)C4(CNC4)C(=N)N3)c2)nc1 [Example 36d, (R)—N-(4-fluoro-3-(9-imino-7-methyl-5,5-dioxido-5-thia-2,8-diazaspiro[3.5]nonan-7-yl)phenyl)-5-methoxypicolinamide]
14	11	CN1CCC2(CC1)C(=N)N[C@](C)(c1cc(NC(=O)c3ccc(OCF)cn3)ccc1F)CS2(=O)=O [Example 32, N-{4-fluoro-3-[(3R)-5-imino-3,9-dimethyl-1,1-dioxido-1-thia-4,9-diazaspiro[5.5]undec-3-yl]phenyl}-5-(fluoromethoxy) pyridine-2-carboxamide]
1.6	1.1	COc1ccc(C(=O)Nc2ccc(F)c([C@]3(C)CS(=O)(=O)C4(CN(C(C)=O)C4)C(=N)N3)c2)nc1 [Example 37, (R)—N-(3-(2-acetyl-9-imino-7-methyl-5,5-dioxido-5-thia-2,8-diazaspiro[3.5]nonan-7-yl)-4-fluorophenyl)-5-methoxypicolinamide]
6.4	8.4	CN1CCC2(CC1)C(=N)N[C@](C)(c1cc(NC(=O)c3ccc(C#N)cn3)ccc1F)CS2(=O)=O [Example 25, 5-cyano-N-{4-fluoro-3-[(3R)-5-imino-3,9-dimethyl-1,1-dioxido-1-thia-4,9-diazaspiro[5.5]undec-3-yl]phenyl}pyridine-2-carboxamide]
1.4	0.5	CN1CC2(C1)C(=N)N[C@](C)(c1cc(NC(=O)c3ncc(C#N)cc3C(F)F)ccc1F)CS2(=O)=O [Example 12b, 5-cyano-3-(difluoromethyl)-N-{4-fluoro-3-[(7R)-9-imino-2,7-dimethyl-5,5-dioxido-5-thia-2,8-diazaspiro [3.5]non-7-yl]phenyl}pyridine-2-carboxamide]
15	52	CN1CCC2(CC1)C(=N)N[C@](C)(c1cc(NC(=O)c3ccc(OC(F)(F)F)cn3)ccc1F)CS2(=O)=O [Example 30]
2.3	30	CC#CCOc1ccc(C(=O)Nc2ccc(F)c([C@]3(C)CS(=O)(=O)C4(CCN(C)CC4)C(=N)N3)c2)nc1 [Example 36, 5-(but-2-yn-1-yloxy)-N-{4-fluoro-3-[(3R)-5-imino-3,9-dimethyl-1,1-dioxido-1-thia-4,9-diazaspiro[5.5]undec-3-yl]phenyl}pyridine-2-carboxamide]
2.7	4.3	CN1CC2(C1)C(=N)N[C@](C)(c1cc(NC(=O)c3ccc(OC(F)F)cn3)ccc1F)CS2(=O)=O [Example 7, 5-(difluoromethoxy)-N-{4-fluoro-3-[(7R)-9-imino-2,7-dimethyl-5,5-dioxido-5-thia-2,8-diazaspiro[3.5]non-7-yl]phenyl}pyridine-2-carboxamide]

Compound	Ki [1] [nM]	Ki [2] [nM]
CN1CC2(C1)C(=N)N[C@](C)(c1cc(NC(=O)c3ncc(C#N)cc3C3CC3)ccc1F)CS2(=O)=O [Example 12a, 5-cyano-3-cyclopropyl-N-{4-fluoro-3-[(7R)-9-imino-2,7-dimethyl-5,5-dioxido-5-thia-2,8-diazaspiro [3.5]non-7-yl]phenyl}pyridine-2-carboxamide]	1.3	0.8
COc1ccc(C(=O)Nc2ccc(F)c([C@]3(C)CS(=O)(=O)C4(CN(C)C4)C(=N)N3)c2)nc1 [Example 3, N-{4-fluoro-3-[(7R)-9-imino-2,7-dimethyl-5,5-dioxido-5-thia-2,8-diazaspiro[3.5]non-7-yl]phenyl}-5-methoxypyridine-2-carboxamide]	6.3	1.6
COc1cnc(C(=O)Nc2ccc(F)c([C@]3(C)CS(=O)(=O)C4(CN(C)C4)C(=N)N3)c2)c(C)c1 [Example 9, N-{4-fluoro-3-[(7R)-9-imino-2,7-dimethyl-5,5-dioxido-5-thia-2,8-diazaspiro[3.5]non-7-yl]phenyl}-5-methoxy-3-methylpyridine-2-carboxamide]	6.3	0.9
